Results on 27 compounds are retold here after US20070244155A1 (AMGEN INC., priority 2006, published 2007).

pEC50: −log10 of the molar value.

The target in this experiment is T1, human GPR40 (Homo sapiens, UniProt O14842).
T1 construct: expressed in transfected cells; host or cells: CHO cells
T1 sequence (O14842 whole entry): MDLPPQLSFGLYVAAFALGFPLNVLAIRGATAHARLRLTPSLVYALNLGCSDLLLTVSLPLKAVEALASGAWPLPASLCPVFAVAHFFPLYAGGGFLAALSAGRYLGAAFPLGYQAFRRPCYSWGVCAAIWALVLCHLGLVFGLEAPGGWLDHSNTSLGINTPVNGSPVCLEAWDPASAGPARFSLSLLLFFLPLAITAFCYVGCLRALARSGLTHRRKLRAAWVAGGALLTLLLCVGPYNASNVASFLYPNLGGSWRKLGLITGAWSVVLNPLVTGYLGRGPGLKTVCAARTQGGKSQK
The experiment can be described thus: Cell-based aequorin assay using human GPR40. The settings on record: CHO cells transfected with GPR40 and aequorin expression vectors; aequorin luminescence; activation of human GPR40; read-out: Relative EC50. The protocol:
A cell-based aequorin assay may be employed to characterize the modulatory activity of compounds on the GPR40 signaling pathway. In an exemplary assay, CHO cells are transfected in a 15 cm plated containing 14 million cells with 5 μg of GPR40 expression vector and 5 μg of Aequorin expression vector (Euroscreen) using Lipofectamine 2000 (Invitrogen). After 17-24 hours post-transfection, cells are washed with phosphate buffered saline (PBS) and detached from the tissue culture dish with 2 mL of trypsin (0.25%(w/v)). Trypsinization is halted with 28 mL of Hanks Buffered Salt Solution containing 20 mM Hepes (H/HBSS) and 0.01% fatty acid-free bovine serum albumin (BSA) or 0.625% fatty acid-free human serum albumin (HSA). Coelantrazine is added to 1 ug/mL and the cells are incubated for 2 hours at room temperature. Cells are gently mixed every 15 minutes. Compounds are dissolved in dimethyl sulfoxide for preparation of 10 mM stock solutions. Compounds are diluted in H/HBSS containing either 0.01% BSA or 0.625% HSA. Serial dilutions of the test compounds are prepared to determine dose response. Aequorin luminescence measurements are made using an EG&G Berthold 96-well luminometer and the response is measured over a 20 second interval after cells and compounds are mixed. The area-under-curve from 2-20 seconds is plotted to determine dose response. The EC50 (effective concentration to reach 50% maximal response) is determined from the dose response plot. Table 1 includes representative data (EC50 values) obtained for exemplary compounds of the invention for the relative activation of human GPR40. […] Therefore, in some embodiments, the invention provides any of the compounds listed in Table 1 individually or as members of a group and pharmaceutically acceptable salts, esters, solvates, tautomers, stereoisomers, and/or prodrugs thereof.
Consider `CN1C(=O)c2cc(OCc3cccc(-c4ccc(C(F)(F)F)cc4)c3)ccc2C1CC(=O)O` (racemic) [Example 70, (R/S)-(2-methyl-3-oxo-5-(((4′-(trifluoromethyl)-1,1′-biphenyl-3-yl)methyl)oxy)-2,3-dihydro-1H-isoindol-1-yl)acetic acid], for which the pEC50 was 5.00 to 6.00.

For the compound `O=C(O)C1CCc2cc(OCc3cccc(-c4ccc(C(F)(F)F)cc4)c3)ccc2C1` (stereo not drawn) [Example 31], the negative logarithm of the EC50 (pEC50) was 5.00 to 6.00.

For the compound `C=C1CCOc2cc(OCc3ccccc3)ccc2C1CC(=O)O` (racemic) [Example 43, (R/S)-2-(8-(benzyloxy)-4-methylene-2,3,4,5-tetrahydrobenzo[b]oxepin-5-yl)acetic acid], the pEC50 is 6.00 to 7.00.

Consider `CCCCOc1ccc(C)cc1-c1ccc(COc2ccc3c(c2)CC(C)C3CC(=O)O)cc1` (mixture of isomers) [Example 25], for which the pEC50 is 5.00 to 6.00.

For the compound `C=C(c1ccc(Oc2ccccc2)cc1)c1ccc2c(c1)CCCC2CC(=O)O` (racemic) [Example 45, (R/S)-{6-[1-(4-Phenoxy-phenyl)-vinyl]-1,2,3,4-tetrahydro-naphthalen-1-yl}-acetic acid], the pEC50 is 5.00 to 6.00.

In the case of `Cc1ccc(-c2nc(C)c(COc3ccc4c(c3)C(CC(=O)O)CCC4)s2)cc1` (stereo not drawn) [Example 17], the negative logarithm of the EC50 (pEC50) was 5.00 to 6.00.

Take `O=C(O)C[C@@H]1CCCc2cc(OCc3cccc(-c4ccc(C(F)(F)F)cc4)c3)ccc21` [Example 3, [(S)-6(4′-Trifluoromethyl-biphenyl-3-ylmethoxy)-1,2,3,4-tetrahydro-naphthalen-1-yl]-acetic acid]: the pEC50 is 6.00 to 7.00.

Regarding `CCCCOc1ccc(C)cc1-c1ccc(COc2ccc3c(c2)CCCC3CC(=O)O)cc1` (racemic) [Example 1, (R/S)-[6-(2′-Butoxy-5′-methyl-biphenyl-4-ylmethoxy)-1,2,3,4-tetrahydro-naphthalen-1-yl]-acetic acid], the negative-log EC50 (pEC50) is 6.00 to 7.00.

`O=C(O)Cn1ccc2cc(OCc3cccc(-c4ccc(C(F)(F)F)cc4)c3)ccc21` [Example 52]: the pEC50 was 5.00 to 6.00.

As to `O=C(O)CCn1ccc2cc(OCc3cccc(-c4ccc(C(F)(F)F)cc4)c3)ccc21` [Example 51], the pEC50 is 5.00 to 6.00.

As for `O=C(O)CC1CCCc2cc(CCc3ccc(-c4ccccc4)cc3)ccc21` (stereo not drawn) [Example 49, [6-(2-Biphenyl-4-yl-ethyl)-1,2,3,4-tetrahydro-naphthalen-1-yl]-acetic acid], the negative-log EC50 (pEC50) was 5.00 to 6.00.

Consider `Cc1c(Cl)cccc1-c1cccc(COc2ccc3c(c2)OCC[C@H](C(=O)O)C3)c1` [Example 65], for which the negative logarithm of the EC50 (pEC50) is 5.00 to 6.00.

As to `COc1cccc(-c2ccc(COc3ccc4c(c3)CCCC4CC(=O)O)cc2)c1` (stereo not drawn) [Example 7], the pEC50 is above 7.00.

As to `CCCCOc1ccc(C)cc1-c1ccc(COc2ccc3c(c2)CCC3CC(=O)O)cc1` (racemic) [Example 11, (R/S)-[5-(2′-Butoxy-5′-methyl-biphenyl-4-ylmethoxy)-indan-1-yl]-acetic acid], the pEC50 was 6.00 to 7.00.

For the compound `Cc1cc(Cl)ccc1-c1cccc(COc2ccc3c(c2)C(=O)NC3CC(=O)O)c1` (racemic) [Example 66, (R/S)-(5-(((4′-chloro-2′-methyl-1,1′-biphenyl-3-yl)methyl)oxy)-3-oxo-2,3-dihydro-1H-isoindol-1-yl)acetic acid], the negative logarithm of the EC50 (pEC50) was 5.00 to 6.00.

Regarding `CCCCOc1ccc(C)cc1-c1ccc(COc2ccc3c(c2)CCC[C@H]3CC(=O)O)cc1` [Example 4], the pEC50 was above 7.00.

As to `O=C(O)[C@@H]1CCOc2cc(OCc3cccc(-c4ccc(C(F)(F)F)cc4)c3)ccc2C1` [Example 63], the pEC50 was 5.00 to 6.00.

As to `O=C(O)c1cc2ccc(OCc3cccc(Oc4ccccc4)c3)cc2oc1=O` [Example 54, 7-(3-Phenoxybenzyloxy)-2-oxo-2H-chromene-3-carboxylic acid], the pEC50 was 5.00 to 6.00.

With `CCOc1ccc(F)c(-c2ccc(COc3ccc4c(c3)CCCC4CC(=O)O)cc2)c1` (stereo in doubt) [Example 60, (S)-[6-(5′-Ethoxy-2′-fluoro-biphenyl-4-ylmethoxy)-1,2,3,4-tetrahydro-naphthalen-1-yl]-acetic acid], the pEC50 is 5.00 to 6.00.

For `COc1ccc(COc2ccc3c(c2)CCC(=O)N3CCC(=O)O)cc1` [Example 50, 3-[6-(4-Methoxy-benzyloxy)-2-oxo-3,4-dihydro-2H-quinolin-1-yl]-propionic acid], the pEC50 was 5.00 to 6.00.

On to `C=C1CCc2cc(OCc3cccc(-c4ccc(C(F)(F)F)cc4)c3)ccc2C1CC(=O)O` (stereo not drawn) [Example 38, 2-(6-(3-(4-Trifluoromethylphenyl)benzyloxy)-2-methylene-1,2,3,4-tetrahydronaphthalen-1-yl)acetic acid], for which the negative logarithm of the EC50 (pEC50) was 6.00 to 7.00.

In the case of `CCOc1ccccc1-c1ccc(COc2ccc3c(c2)CC(C)C3CC(=O)O)cc1` (mixture of isomers) [Example 27], the pEC50 was 5.00 to 6.00.

As for `O=C(O)CC1CCc2ccc(OCc3cccc(-c4ccc(C(F)(F)F)cc4)c3)cc2C1` (stereo not drawn) [Example 20], the negative-log EC50 (pEC50) is 5.00 to 6.00.

Regarding `CCOc1ccccc1-c1ccc(COc2ccc3c(c2)CCC3CC(=O)O)cc1` (stereo not drawn) [Example 12], the negative logarithm of the EC50 (pEC50) is 6.00 to 7.00.

In the case of `CCOc1ccc(F)c(-c2ccc(COc3ccc4c(c3)CCC[C@H]4CC(=O)O)cc2)c1` [Example 59, (S)-[6-(5′-Ethoxy-2′-fluoro-biphenyl-4-ylmethoxy)-1,2,3,4-tetrahydro-naphthalen-1-yl]-acetic acid], the negative logarithm of the EC50 (pEC50) was 5.00 to 6.00.

As to `CCCCOc1ccc(C)cc1-c1ccc(COc2ccc3c(c2)CC(CC(=O)O)CC3)cc1` (stereo not drawn) [Example 21], the pEC50 was 5.00 to 6.00.

Consider `CCOc1cccc(-c2ccc(COc3ccc4c(c3)C(CC(=O)O)CCC4)cc2)c1` (stereo not drawn) [Example 16], for which the negative-log EC50 (pEC50) is 5.00 to 6.00.
